Reference: patent US7834024B2, “Compositions and methods for inhibition of the JAK pathway” (Rigel Pharmaceuticals, Inc., priority 2007, dated 2010)

System: Ramos B-Cell Line Stimulated with IL-4 (JAK-1 and JAK-3 / Stat-6, CD23)
Test: Assay for Ramos B-Cell Line Stimulated with IL-4 (CD23 upregulation, FACS)
Type: cell-based
Settings: Homo sapiens, Ramos, human Ramos B cells, compound 1 hour, IL-4 50 units/mL for 20-24 hours, anti-CD23-PE FACS; read-out: Example 2 (IC50)
From the text: One means of assaying for such inhibition is detection of the effect of the 2,4-pyrimidinediamine compounds on the upregulation of downstream gene products. In the Ramos/IL4 assay, B-cells are stimulated with the cytokine Interleukin-4 (IL-4) leading to the activation of the JAK/Stat pathway through phosphorylation of the JAK family kinases, JAK1 and JAK3, which in turn phosphorylate and activate the transcription factor Stat-6. […] To study the effect of inhibitors (e.g., the 2,4-substituted pyrimindinediamine compounds described herein) on the JAK1 and JAK3 kinases, human Ramos B cells are stimulated with human IL-4. 20 to 24 hours post stimulation, cells are stained for upregulation of CD23 and analyzed using flow cytometry (FACS).
B-cells stimulated with cytokine Interleukin-4 (IL-4) activate the JAK/Stat pathway through phosphorylation of the JAK family kinases, JAK-1 and JAK-3, which in turn phosphorylate and activate the transcription factor Stat-6. […] To study the effect of inhibitors on the JAK family kinases, human Ramos B cells were stimulated with human IL-4.
Cells were maintained at a density of 3.5×10^5. The day before the experiment, Ramos B-cells were diluted to 3.5×10^5 cells/mL to ensure that they were in a logarithmic growth phase.
Cells were spun down and suspended in RPMI with 5% serum. 5×10^4 cells were used per point in a 96-well tissue culture plate. Cells were pre-incubated with compound or DMSO (Sigma-Aldrich, St. Louis, Mo., Cat No. D2650) vehicle control for 1 hour in a 37° C. incubator. Cells were then stimulated with IL-4 (Peprotech Inc., Rocky Hill, N.J., Cat No. 200-04) for a final concentration of 50 units/mL for 20-24 hours. […] Detection was performed using a BD LSR I System Flow Cytometer, purchased from Becton Dickinson Biosciences of San Jose, Calif.

Compound | IC50 [nM]
CN1CCN(c2ccc(Nc3ncc(F)c(Nc4cccc(OCC#N)c4)n3)cc2C(N)=O)CC1 [Compound I-54, N2-[3-Aminocarbonyl-4-(4-methylpiperazin-1-yl)phenyl]-N4-(3-cyanomethoxyphenyl)-5-fluoro-2,4-pyrimidinediamine] | 19.1
CNC(=O)c1cc(Nc2ncc(F)c(Nc3ccc(OCc4noc(C)n4)cc3)n2)ccc1N1CCN(C)CC1 [Compound I-63, 5-Fluoro-N2-[3-methylaminocarbonyl-4-(4-methylpiperazin-1-yl)phenyl]-N4-[4-((5-methyl-1,2,4-oxadiazol-3-yl)methoxy)phenyl]-2,4-pyrimidinediamine] | 265
Cc1nc(COc2ccc(Nc3nc(Nc4cccc(C#N)c4)ncc3F)cc2)no1 [Compound I-59, N2-(3-Cyanophenyl)-5-fluoro-N4-[4-((5-methyl-1,2,4-oxadiazol-3-yl)methoxy)phenyl]-2,4-pyrimidinediamine] | 596
Cc1cc(Nc2nc(Nc3ccc(C(N)=O)cc3)ncc2F)cc(C)c1OCC#N [Compound I-90, N2-(4-Aminocarbonylphenyl)-N4-(4-cyanomethoxy-3,5-dimethylphenyl)-5-fluoro-2,4-pyrimidinediamine] | 91.5
CN1CCN(c2ccc(Nc3ncc(F)c(Nc4cccc(OCC(N)=O)c4)n3)cc2C(N)=O)CC1 [Compound I-50, N4-(3-Aminocarbonylmethoxyphenyl)-N2-[3-aminocarbonyl-4-(4-methylpiperazin-1-yl)phenyl]-5-fluoro-2,4-pyrimidinediamine] | 182
N#CCOc1ccc(Nc2ncc(F)c(Nc3ccc(OCC#N)c(Cl)c3)n2)cc1Cl [Compound I-107, N2,N4-Bis(3-chloro-4-cyanomethoxyphenyl)-5-fluoro-2,4-pyrimidinediamine] | 350
CC1(C)Oc2ccc(Nc3nc(Nc4ccc5c(c4)C(=O)NCC5)ncc3F)nc2NC1=O [IV-1, N4-[2,2-Dimethyl-3-oxo-4H-5-pyrido[1,4]oxazin-6-yl]-5-fluoro-N2-(I-oxo-1,2,3,4-tetrahydroisoquinolin-7-yl)-2,4-pyrimidinediamine] | 287
CC(C)(C#N)Oc1ccc(Nc2nc(Nc3ccc(C(N)=O)cc3)ncc2F)cc1 [Compound I-84, N2-(4-Aminocarbonylphenyl)-N4-[4-(1-cyano-1-methylethoxy)phenyl]-5-fluoro-2,4-pyrimidinediamine] | 148
C#CCOc1ccc(Nc2nc(Nc3ccc4c(c3)C(=O)NCC4)ncc2F)cc1 [Compound V-2, 5-Fluoro-N2-(1-oxo-1,2,3,4-tetrahydroisoquinolin-7-yl)-N4-[4-(2-propynyloxy)phenyl]-2,4-pyrimidinediamine] | 355
N#CCOc1cccc(Nc2nc(Nc3ccc(C#N)cc3)ncc2F)c1 [Compound I-46, N4-(3-Cyanomethoxyphenyl)-N2-(4-cyanophenyl)-5-fluoro-2,4-pyrimidinediamine] | 1470
N#Cc1cccc(Nc2ncc(F)c(Nc3cccc(OCC(N)=O)c3)n2)c1 [Compound I-35, N4-(3-Aminocarbonylmethoxyphenyl)-N2-(3-cyanophenyl)-5-fluoro-2,4-pyrimidinediamine] | 326
Cc1noc(CCCc2ccc(Nc3nc(Nc4cccc(C#N)c4)ncc3F)cc2)n1 [Compound I-114, N2-(3-Cyanophenyl)-5-fluoro-N4-[4-(3-(3-methyl-1,2,4-oxadiazol-5-yl)propyl)phenyl]-2,4-pyrimidinediamine] | 1750
Cc1noc(COc2ccc(Nc3nc(Nc4cccc(C#N)c4)ncc3F)cc2)n1 [Compound I-111, N2-(3-Cyanophenyl)-5-fluoro-N4-[4-((3-methyl-1,2,4-oxadiazol-5-yl)methoxy)phenyl]-2,4-pyrimidinediamine] | 1050
COc1cc(Nc2nc(Nc3ccc4oc(C(=O)NCCN5CCOCC5)cc4c3)ncc2F)ccc1Cl [III-2, N4-(4-Chloro-3-methoxyphenyl)-5-fluoro-N2-[2-(2-(N-morpholinyl)ethylaminocarbonyl)benzofuran-5-yl]-2,4-pyrimidinediamine] | 144
N#Cc1ccc(Nc2ncc(F)c(Nc3cccc(OCC(N)=O)c3)n2)cc1 [Compound I-34, N4-(3-Aminocarbonylmethoxyphenyl)-N2-(4-cyanophenyl)-5-fluoro-2,4-pyrimidinediamine] | 1250
NC(=O)COc1ccc(Nc2nc(Nc3cccc(C(N)=O)c3)ncc2F)cc1 [Compound I-23, N4-(4-Aminocarbonylmethoxyphenyl)-N2-(3-aminocarbonylphenyl)-5-fluoro-2,4-pyrimidinediamine] | 3070
CCc1cc(Nc2ncc(F)c(Nc3ccc4c(c3)NC(=O)CS4)n2)cc(C#N)c1Cl [II-23, N2-(4-Chloro-3-cyano-5-ethylphenyl)-5-fluoro-N4-(3-oxo-2H,4H-benzo[1,4]thiazin-6-yl)-2,4-pyrimidinediamine] | 174
C#CCOc1ccc(Nc2nc(Nc3ccc(C(N)=S)cc3)ncc2F)cc1 [Compound I-7, N2-(4-Aminocarbonothioylphenyl)-5-fluoro-N4-[4-(2-propynyloxy)phenyl]-2,4-pyrimidinediamine] | 223

Same assay, conditions: human Ramos B cells, compound 1 hour, IL-4 50 units/mL for 20-24 hours, anti-CD23-PE FACS; read-out: Example 2 (IC50)

Compound | IC50 [nM]
CCN(CC)CCNC(=O)c1ccc(Nc2ncc(F)c(Nc3ccc(OCc4cc(C)on4)cc3)n2)cc1 [Compound I-127, N2-[4-(2-(N,N-Diethylamino)ethylaminocarbonyl)phenyl]-5-fluoro-N4-[4-((5-methylisoxazol-3-yl)methyleneoxy)phenyl]-2,4-pyrimidinediamine] | 9.33
CNC(=O)COc1cccc(Nc2ncc(F)c(Nc3ccc4c(c3)N(Cc3ccc(OC)cc3)C(=O)C(C)S4)n2)c1 (racemic) [II-13, Racemic-5-fluoro-N2-[3-(N-methylaminocarbonylmethyleneoxy)phenyl]-N4-[2-methyl-3-oxo-4-(4-methoxybenzyl)-2H-benzo[1,4]thiazin-6-yl]-2,4-pyrimidinediamine] | 938
Cc1cnc(Nc2cccc(C(N)=O)c2)nc1Nc1ccc2c(c1)NC(=O)CS2 [II-44, N2-(3-Aminocarbonylphenyl)-N4-(3,4-dihydro-2H-3-oxo-4H-benz[1,4]thiazin-6-yl)-5-methyl-2,4-pyrimidinediamine] | 189
Cc1noc(COc2ccc(N(C)c3nc(Nc4ccc(C(N)=O)c(Cl)c4)ncc3F)cc2)n1 [Compound I-16, N2-(4-Aminocarbonyl-3-chlorophenyl)-5-fluoro-N4-methyl-N4-[4-((3-methyl-1,2,4-oxadiazol-5-yl)methyleneoxy)phenyl]-2,4-pyrimidinediamine] | 909
NC(=O)c1cccc(Nc2ncc(F)c(Nc3ccc(OCc4ccccn4)cc3)n2)c1 [Compound I-133, N2-(3-Aminocarbonylphenyl)-5-fluoro-N4-[4-(2-pyridinylmethyleneoxy)phenyl]-2,4-pyrimidinediamine] | 1560
N2-(4-Chloro-3-cyano-5-ethyl phenyl)-N4-(2,2-dimethyl-3-oxo-4H-5-pyrido[1,4]oxazin-6-yl)-5-fluoro-2,4-pyrimidinediamine [II-26] | 16100
N2-(4-Cyanomethyl phenyl)-5-fluoro-N4-(5-methoxycarbonylthiophen-2-yl)-2,4-pyrimidinediamine [Compound I-122] | 723
CNC(=O)COc1cccc(Nc2ncc(F)c(Nc3ccc4c(c3)N(CC#N)C(=O)CS4)n2)c1 [II-12, N4-(4-Cyanomethyl-3-oxo-2H-benzo[1,4]thiazin-6-yl)-5-fluoro-N2-[3-(N-methylaminocarbonylmethyleneoxy)phenyl]-2,4-pyrimidinediamine] | 36.2
